“Also recorded” adds a separate entry of the source.

In test [1] the test system is organ of Corti explants. Description: Sox2 lineage tracing of supporting cells in organ of Corti explants (hair cell generation). Type of test: cell-based, mice. Details: double-labeled cells positive for Sox2 lineage and myosin VIIa: dose or concentration left out as unconfirmed. An excerpt: Hair cell co-labeling with the lineage tag indicates derivation from a Sox2-positive cell (labeled with asterisks) and is thus evidence for newly generated hair cells by transdifferentiation of supporting cells. OHCs, at the bottom of the image, are delineated by a light gray bracket while IHCs, at the top of the image, are delineated by a white bracket. The scale bar is 25 μm.
(B, C) Effect of CK1 inhibition was significant.
Since CK1 inhibition stabilized Atoh1, we assessed its effect on hair cell generation in the cochlea. A Sox2-positive Cre-reporter strain crossed with CAG-TdTomato (Bramhall et al., Stem cell reports 2, 311-322 (2014)) was used to label all supporting cells for lineage tracing to follow supporting cells after CK1 inhibition.

Test [2] concerns Atoh1-specific E-box activity. As to the kind of experiment: Dual luciferase reporter assay with Atoh1 E-box associated motif (AtEAM) in HEK cells. The test is classed as cell-based. The note with it: HEK cells with or without Atoh1 overexpression, overnight, normalized to Renilla luciferase. How it is done:
Dual luciferase assay using a firefly reporter construct with an AtEAM motif in HEK cells. Experiments were done in triplicate, and data are presented as the mean±SEM after normalization to Renilla luciferase
DMSO or CK1 inhibitor D4476 was added to HEK with or without overexpression of Atoh1 for overnight to block the degradation of Atoh1 and therefore downstream Atoh1-specific E-box activity.
To further assess potential roles of CK1 in the control of Atoh1 signaling, we performed dual luciferase reporter assays using a firefly reporter construct with an Atoh1 E-box associated motif (AtEAM) and a Renilla control reporter. AtEAM is a ten […] Atoh1-specific binding motif that represents the site for the activity of Atoh1 in numerous downstream genes (Klisch et al., Proc Natl Acad Sci USA. 2011 February 22; 108(8):3288-93). Inhibition of CK1 by D4476 increased and overexpression of CK1 (specifically CK1δ and/or CK1ε) reduced Atoh1 downstream signaling (FIG. 7A).
In general terms: Reporter assays use an easily measured gene product as a stand-in for the process of interest.

The test system of test [3] is Atoh1. Description: Steady-state abundance of Atoh1 in human 293T cells. Type of test: cell-based.
Test [4] concerns Atoh1-Huwe1 binding. As to the kind of experiment: Co-immunoprecipitation of Atoh1-Huwe1 binding and Atoh1 ubiquitylation in HEK cells. Type of test: cell-based. The following applies: HEK cells co-transfected with HA-ubiquitin and FLAG-Atoh1, 4 hours treatment, co-IP. As to the method: HEK cells were co-transfected with HA-ubiquitin and FLAG-Atoh1 plasmids for 48 hours and treated with CK1 inhibitors (PF-670462 or D4476) and/or proteasome inhibitor MG132 (10 μM) for 4 hours. Immunoprecipitation was performed under denaturing conditions with anti-FLAG antibody. Endogenous Huwe1 was detected with an anti-Huwe1 antibody. Atoh1 was detected with anti-FLAG while ubiquitin was detected with anti-HA antibodies.
To explore the effect of CK1 on proteasomal degradation of Atoh1, we performed co-IP experiments.

For test [5], the system named is Aminoglycoside-exposed organ of Corti explants. As to the kind of experiment: Sox2 lineage tracing in aminoglycoside-exposed organ of Corti explants (hair cell regeneration). The test is classed as cell-based. As to the method: Images of the basal turn of the lineage-traced organ of Corti damaged by gentamycin and treated with CK1 inhibitor D4476 for 72 hours. […] The scale bar is 25 μm.
Aminoglycoside-exposed organ of Corti explants^3 were treated with 10 μM D4476 for 72 hours and lineage traced.

Test [6] has as its system Atoh1. Description: Atoh1 protein in newborn organ of Corti explants (Western blotting, densitometry). The following applies: newborn mouse organ of Corti explants, 10 μM, 72 hours. The test is classed as cell-based, mice. As to the method:
Effect of CK1 inhibition on Atoh1 upregulation in the organ of Corti. Newborn organs of Corti (P1) were treated with the CK1 inhibitor D4476 (10 uM) for 72 hours. Atoh1 were quantified after Western blotting by densitometry and normalized to a loading control (beta-actin).
(A western blot detects proteins with antibodies after separation by electrophoresis.)

Setting [7] is: organ of Corti explants, 10 μM, 72 hours, vs DMSO.

For `NC(=O)c1ccc(-c2nc(-c3ccc4c(c3)OCCO4)c(-c3ccccn3)[nH]2)cc1` [D4476, 4-[4-(2,3-Dihydro-1,4-benzodioxin-6-yl)-5-(2-pyridinyl)-1H-imidazol-2-yl]benzamide], in test [1] (mid-base region of neonatal mouse cochlear tissue, 3 days after treatment), the “double-labeled cells positive for Sox2 lineage and myosin VIIa” value is “found both in the inner hair cell and outer hair cell area”. For the same compound, in test [1] (setting [7]), the “number of reporter-labeled inner hair cells (IHCs)” value was “significantly increased; also recorded: significantly more” and the “number of reporter-labeled outer hair cells (OHCs)” value is “significantly increased; also recorded: significantly more”. For the same compound, the “hair cell generation in the organ of Corti” value in test [1] (summary statement) is reported as “increase hair cell generation”. For the same compound, the “Atoh1 downstream signaling (Atoh1-specific E-box activity)” value in test [2] was “increases Atoh1-specific E-box activity; also recorded: increased”. Moreover, the “steady-state abundance of Atoh1” value in test [3] is “increased the steady-state abundance of Atoh1”. Also, in test [4], the Atoh1-Huwe1 binding result is “diminished Atoh1-Huwe1 binding” and the “ubiquitylation of Atoh1” value is “diminished”. Also, the “Sox2-lineage-tagged hair cells (co-labeled with myosin VIIa and TdTomato) after aminoglycoside damage” value in test [5] (gentamycin-damaged explants, 10 μM, 72 hours) was “resulted in an increase of Sox2-lineage-tagged hair cells; also recorded: indicated transdifferentiation of supporting cells”. In test [5] (summary statement), the “hair cell regeneration after aminoglycoside damage” value is recorded as “promote hair cell regeneration”. Moreover, the “Atoh1 protein in the cochlea based on densitometry” value in test [6] is “caused stabilization of Atoh1 protein”.

With `COc1cc(OC)c(C=C2C(=O)Nc3ccccc32)c(OC)c1` [IC-261, 1,3-Dihydro-3-[(2,4,6-trimethoxyphenyl)methylene]-2H-indol-2-one], the “steady-state abundance of Atoh1” value in test [3] was “increased the steady-state abundance of Atoh1”.

Take `Cl.Cl.Nc1nccc(-c2c(-c3ccc(F)cc3)ncn2C2CCCCC2)n1` [PF-670462, 4-[3-Cyclohexyl-5-(4-fluoro-phenyl)−3H-imidazol-4-yl]-pyrimidin-2-ylamine dihydrochloride]: in test [3], the “steady-state abundance of Atoh1” value was “increased the steady-state abundance of Atoh1”. In test [4], the Atoh1-Huwe1 binding entry is “diminished Atoh1-Huwe1 binding” and the “ubiquitylation of Atoh1” value was “diminished”.

These data come from patent publication US11185536B2, “Treatment of hearing loss by inhibition of casein kinase 1” (Massachusetts Eye & Ear Infirmary, priority 2015, dated 2021).
